Molecular target: T1, CtGH76 (Thermochaetoides thermophila, UniProt G0S5Y9)
T1 construct: gene CTHT_0025410; M1-M50 omitted (precursor 439 aa, predicted signal peptide M1-V60); N-terminal His10-tag removed with TEV; pET28a, E. coli SHuffle T7 Express; one molecule per asymmetric unit
Test: X-ray crystal structure, crystal soaking
Type: binding
Details: soaked with mannose; subsites −4, −2 and +3

T1 sequence (G0S5Y9 entry or part of it): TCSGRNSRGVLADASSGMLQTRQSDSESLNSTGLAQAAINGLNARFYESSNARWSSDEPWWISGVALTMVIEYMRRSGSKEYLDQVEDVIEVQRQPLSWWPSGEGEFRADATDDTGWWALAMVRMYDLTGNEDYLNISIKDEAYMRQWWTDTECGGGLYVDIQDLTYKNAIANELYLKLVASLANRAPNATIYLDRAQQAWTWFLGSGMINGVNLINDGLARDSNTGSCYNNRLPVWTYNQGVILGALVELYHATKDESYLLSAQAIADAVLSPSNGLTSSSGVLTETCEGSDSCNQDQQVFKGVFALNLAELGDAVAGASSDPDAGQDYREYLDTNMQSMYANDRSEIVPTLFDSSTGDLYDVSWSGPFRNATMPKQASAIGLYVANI

OC[C@H]1OC(O)[C@@H](O)[C@@H](O)[C@@H]1O (stereo partly shown) [mannose]
X-ray crystal structure, crystal soaking: Soaking with mannose in CtGH76 identified potential sugar-binding subsites analogous to CtDfg5
